Test [1] addresses Neuronal acetylcholine receptor; alpha3/beta4 (Rattus norvegicus) (UniProt P04757+P12392). In words: Inhibition of rat alpha3beta4 nAChR expressed in Xenopus laevis oocytes assessed as inhibition of Ach-induced response at 10 uM at -80 mV holding potential preincubated for 5 mins followed by Ach stimulation by two electrode voltage-clamp assay relative to control. The class given is cell-based. The settings on record: Oocyte. A general note: Two-electrode voltage clamp holds a large cell at a set potential and records current.

Test [2] has as its target T1, GABA-B receptor (Homo sapiens) (UniProt Q9UBS5+O75899). Nature of the test: Activation of human GABAB1/GABAB2 expressed in HEK293 cells co-transfected with rat CaV2.2 channel assessed as reduction in CaV2.2-mediated peak-current amplitude in response to depolarizing pulse at 1 nM in presence of with 10 uM baclofen by whole cell patch clamp assay relative to control. The class given is cell-based. The settings on record: HEK293T, filed as activator. In general terms: In patch-clamp work, channel activity is measured electrically.

Test [3] has as its target Neuronal acetylcholine receptor; alpha4/beta2 (Rattus norvegicus) (UniProt P09483+P12390). In words: Inhibition of rat alpha4beta2 nAChR expressed in Xenopus laevis oocytes assessed as inhibition of Ach-induced response at 10 uM at -80 mV holding potential preincubated for 5 mins followed by Ach stimulation by two electrode voltage-clamp assay relative to control. Type of test: cell-based. To be noted: Oocyte.

A short description of test [4]: Selectivity index, ratio of IC50 for inhibition of rat alpha9alpha10 nAChR expressed in Xenopus laevis oocytes to IC50 for activation of human GABAB1/GABAB2 expressed in HEK293 cells co-transfected with rat CaV2.2 channel assessed as reduction in CaV2.2-mediated peak Ba2+ current amplitude. The class given is cell-based.
For test [5], the system named is Rattus norvegicus. In words: Analgesic activity in Sprague-Dawley rat model of PNL injury-induced neuropathic pain assessed as pain threshold elevation percentage at 15 nmol/kg, IM administered as single dose measured after 2 to 2.5 hrs post dose. The class given is functional. The settings on record: time 2-2.5 hrs.
Test [6] has as its target Neuronal acetylcholine receptor; alpha2/beta2 (Rattus norvegicus) (UniProt P12389+P12390). Nature of the test: Inhibition of rat alpha2beta2 nAChR expressed in Xenopus laevis oocytes assessed as inhibition of Ach-induced response at 10 uM at -80 mV holding potential preincubated for 5 mins followed by Ach stimulation by two electrode voltage-clamp assay relative to control. The settings on record: Oocyte. The class given is cell-based.

The target of test [7] is T1, GABA-B receptor (Homo sapiens). In words: Activation of human GABAB1/GABAB2 expressed in HEK293 cells co-transfected with rat CaV2.2 channel assessed as reduction in CaV2.2-mediated Ba2+ peak-current amplitude in response to depolarizing pulse in presence of 1 uM GABAB receptor antagonist CGP55845 by whole cell patch clamp assay. Type of test: cell-based. To be noted: HEK293T, time 6.0 hrs.

The test system of the next test is Neuron. Nature of the test: Inhibition of TTX-sensitive sodium channel in Sprague-Dawley rat DRG neuron at 10 uM at -10 mV holding potential by whole cell patch clamp technique. Type of test: tissue-based.
Test [8] deals with Neuronal acetylcholine receptor; alpha2/beta4 (Rattus norvegicus) (UniProt P12389+P12392). In words: Inhibition of rat alpha2beta4 nAChR expressed in Xenopus laevis oocytes assessed as inhibition of Ach-induced response at 10 uM at -80 mV holding potential preincubated for 5 mins followed by Ach stimulation by two electrode voltage-clamp assay relative to control. Type of test: cell-based. To be noted: Oocyte.

The species named for test [9] is Rattus norvegicus. Nature of the test: Inhibition of TTX-resistant sodium channel in Sprague-Dawley rat DRG neuron at 10 uM at 10 mV holding potential by whole cell patch clamp technique.
For test [10], the target named is Neuronal acetylcholine receptor; alpha9/alpha10 (Homo sapiens, UniProt Q9GZZ6+Q9UGM1). In words: Inhibition of human alpha9alpha10 nAChR expressed in Xenopus laevis oocytes assessed as inhibition of Ach-induced response at -80 mV holding potential preincubated for 5 mins followed by Ach stimulation by two electrode voltage-clamp assay. The class given is cell-based, Oocyte.
Neuronal acetylcholine receptor; alpha9/alpha10, sequence (Q9UGM1 whole entry): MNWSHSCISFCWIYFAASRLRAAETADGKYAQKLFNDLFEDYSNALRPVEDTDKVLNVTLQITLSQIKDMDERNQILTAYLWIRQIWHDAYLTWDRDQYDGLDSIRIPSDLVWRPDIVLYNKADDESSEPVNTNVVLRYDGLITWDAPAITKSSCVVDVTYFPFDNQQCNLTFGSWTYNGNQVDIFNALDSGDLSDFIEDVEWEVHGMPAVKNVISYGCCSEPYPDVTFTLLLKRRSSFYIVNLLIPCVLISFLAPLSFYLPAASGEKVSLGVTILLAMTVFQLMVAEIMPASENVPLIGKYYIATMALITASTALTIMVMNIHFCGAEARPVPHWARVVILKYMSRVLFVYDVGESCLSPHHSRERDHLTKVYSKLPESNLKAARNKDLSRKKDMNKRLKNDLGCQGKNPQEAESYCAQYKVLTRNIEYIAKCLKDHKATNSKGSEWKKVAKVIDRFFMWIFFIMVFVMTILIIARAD
Neuronal acetylcholine receptor; alpha9/alpha10, sequence (Q9GZZ6 whole entry): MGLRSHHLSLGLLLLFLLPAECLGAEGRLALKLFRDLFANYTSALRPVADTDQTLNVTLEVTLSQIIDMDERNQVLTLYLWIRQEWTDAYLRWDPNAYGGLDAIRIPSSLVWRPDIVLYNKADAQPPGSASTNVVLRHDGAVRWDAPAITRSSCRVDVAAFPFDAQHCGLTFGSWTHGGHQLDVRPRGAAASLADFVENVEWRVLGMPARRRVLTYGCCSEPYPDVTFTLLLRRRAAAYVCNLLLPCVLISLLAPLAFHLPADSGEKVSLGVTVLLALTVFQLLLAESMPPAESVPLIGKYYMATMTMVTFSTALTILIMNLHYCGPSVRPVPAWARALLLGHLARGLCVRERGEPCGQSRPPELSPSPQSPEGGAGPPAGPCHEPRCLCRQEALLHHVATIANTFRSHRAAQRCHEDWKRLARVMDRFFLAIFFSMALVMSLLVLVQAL

The target in a further test is GABA-B receptor (Homo sapiens, UniProt O75899+Q9UBS5). Nature of the test: Activation of human GABAB1/GABAB2 expressed in HEK293 cells co-transfected with rat CaV2.2 channel assessed as reduction in CaV2.2-mediated peak-current amplitude in response to the depolarizing pulse by whole cell patch clamp assay. Type of test: cell-based, HEK293T.
GABA-B receptor, sequence (Q9UBS5 whole entry): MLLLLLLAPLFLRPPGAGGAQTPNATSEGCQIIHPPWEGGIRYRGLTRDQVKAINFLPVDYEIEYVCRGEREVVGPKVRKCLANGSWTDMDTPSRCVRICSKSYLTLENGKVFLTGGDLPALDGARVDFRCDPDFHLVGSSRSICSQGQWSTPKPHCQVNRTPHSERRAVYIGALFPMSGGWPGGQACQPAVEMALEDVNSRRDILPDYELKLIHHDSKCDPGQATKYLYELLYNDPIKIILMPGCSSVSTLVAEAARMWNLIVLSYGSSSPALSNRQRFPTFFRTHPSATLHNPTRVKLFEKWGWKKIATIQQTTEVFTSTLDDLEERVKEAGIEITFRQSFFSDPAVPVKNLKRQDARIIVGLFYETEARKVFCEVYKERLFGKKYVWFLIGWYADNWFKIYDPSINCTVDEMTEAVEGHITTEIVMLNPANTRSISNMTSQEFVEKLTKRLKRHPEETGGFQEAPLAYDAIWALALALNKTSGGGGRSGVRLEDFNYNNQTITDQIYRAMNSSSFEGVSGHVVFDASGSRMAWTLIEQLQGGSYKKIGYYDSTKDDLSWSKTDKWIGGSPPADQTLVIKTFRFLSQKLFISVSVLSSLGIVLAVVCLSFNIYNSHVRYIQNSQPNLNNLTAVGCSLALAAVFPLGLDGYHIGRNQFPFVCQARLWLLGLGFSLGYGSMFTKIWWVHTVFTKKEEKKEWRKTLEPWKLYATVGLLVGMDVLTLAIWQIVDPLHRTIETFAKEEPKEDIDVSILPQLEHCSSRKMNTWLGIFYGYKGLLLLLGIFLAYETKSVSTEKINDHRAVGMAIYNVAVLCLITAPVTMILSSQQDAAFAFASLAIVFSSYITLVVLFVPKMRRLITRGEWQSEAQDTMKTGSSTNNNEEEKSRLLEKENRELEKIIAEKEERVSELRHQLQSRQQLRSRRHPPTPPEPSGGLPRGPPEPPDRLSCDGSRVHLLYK
GABA-B receptor, sequence (O75899 whole entry): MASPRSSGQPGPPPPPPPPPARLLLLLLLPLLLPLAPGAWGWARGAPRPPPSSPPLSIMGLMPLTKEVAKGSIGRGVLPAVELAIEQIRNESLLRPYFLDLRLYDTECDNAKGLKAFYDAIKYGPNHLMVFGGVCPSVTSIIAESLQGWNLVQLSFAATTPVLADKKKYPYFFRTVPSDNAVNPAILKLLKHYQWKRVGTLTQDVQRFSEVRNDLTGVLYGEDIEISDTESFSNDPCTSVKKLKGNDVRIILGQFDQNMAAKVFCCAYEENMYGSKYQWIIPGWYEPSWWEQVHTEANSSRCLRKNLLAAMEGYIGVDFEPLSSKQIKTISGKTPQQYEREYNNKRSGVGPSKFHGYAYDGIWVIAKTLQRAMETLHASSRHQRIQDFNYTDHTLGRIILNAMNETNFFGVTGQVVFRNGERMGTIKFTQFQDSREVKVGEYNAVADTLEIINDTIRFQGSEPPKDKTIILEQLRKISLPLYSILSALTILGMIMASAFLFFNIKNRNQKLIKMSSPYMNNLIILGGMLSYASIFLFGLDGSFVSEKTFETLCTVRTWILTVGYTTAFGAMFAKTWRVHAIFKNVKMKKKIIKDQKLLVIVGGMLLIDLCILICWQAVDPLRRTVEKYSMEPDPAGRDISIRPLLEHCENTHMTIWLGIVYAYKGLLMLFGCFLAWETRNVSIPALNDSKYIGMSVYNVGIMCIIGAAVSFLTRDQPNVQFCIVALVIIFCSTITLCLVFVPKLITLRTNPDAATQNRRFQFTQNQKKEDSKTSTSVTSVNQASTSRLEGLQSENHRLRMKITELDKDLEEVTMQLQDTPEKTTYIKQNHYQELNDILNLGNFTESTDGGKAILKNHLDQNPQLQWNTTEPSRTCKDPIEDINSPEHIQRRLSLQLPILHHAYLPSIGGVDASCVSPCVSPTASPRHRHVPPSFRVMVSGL
Test [11] is described as follows: Selectivity index, ratio of IC50 for inhibition of human alpha9alpha10 nAChR expressed in Xenopus laevis oocytes to IC50 for activation of human GABAB1/GABAB2 expressed in HEK293 cells co-transfected with rat CaV2.2 channel assessed as reduction in CaV2.2-mediated peak-current amplitude. Type of test: cell-based.
The target in test [12] is Nicotinic acetylcholine receptor alpha9/alpha10 (Rattus norvegicus, UniProt P43144+Q9JLB5). In words: Inhibition of rat alpha9alpha10 nAChR expressed in Xenopus laevis oocytes assessed as inhibition of Ach-induced response at -80 mV holding potential preincubated for 5 mins followed by Ach stimulation by two electrode voltage-clamp assay. The class given is cell-based, Oocyte.
Nicotinic acetylcholine receptor alpha9/alpha10, sequence (P43144 whole entry): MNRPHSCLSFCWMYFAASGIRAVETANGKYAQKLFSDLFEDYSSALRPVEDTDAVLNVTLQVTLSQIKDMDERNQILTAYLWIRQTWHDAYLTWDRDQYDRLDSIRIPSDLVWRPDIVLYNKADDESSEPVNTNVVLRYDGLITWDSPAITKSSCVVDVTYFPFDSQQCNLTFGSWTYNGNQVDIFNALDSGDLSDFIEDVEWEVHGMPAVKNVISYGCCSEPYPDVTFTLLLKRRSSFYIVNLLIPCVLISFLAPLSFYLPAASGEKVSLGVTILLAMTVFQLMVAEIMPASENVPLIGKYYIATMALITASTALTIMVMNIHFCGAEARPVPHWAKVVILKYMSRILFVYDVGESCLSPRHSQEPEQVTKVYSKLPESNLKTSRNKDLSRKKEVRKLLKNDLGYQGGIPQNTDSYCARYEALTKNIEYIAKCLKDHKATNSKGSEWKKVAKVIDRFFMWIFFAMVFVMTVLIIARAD
Nicotinic acetylcholine receptor alpha9/alpha10, sequence (Q9JLB5 whole entry): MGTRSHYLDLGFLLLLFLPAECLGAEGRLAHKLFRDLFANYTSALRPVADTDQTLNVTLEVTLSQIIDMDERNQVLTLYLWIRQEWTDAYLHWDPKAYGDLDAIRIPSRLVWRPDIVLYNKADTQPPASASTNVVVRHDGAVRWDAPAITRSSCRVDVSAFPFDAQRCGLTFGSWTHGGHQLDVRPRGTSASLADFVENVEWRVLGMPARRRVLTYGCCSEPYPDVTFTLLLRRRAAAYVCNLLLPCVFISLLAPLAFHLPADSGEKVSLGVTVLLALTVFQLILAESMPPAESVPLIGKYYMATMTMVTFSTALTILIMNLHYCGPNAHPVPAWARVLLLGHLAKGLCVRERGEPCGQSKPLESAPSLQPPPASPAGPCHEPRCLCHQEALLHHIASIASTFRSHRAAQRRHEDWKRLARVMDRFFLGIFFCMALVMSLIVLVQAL

Test [13] deals with Neuronal acetylcholine receptor; alpha3/beta2 (Rattus norvegicus) (UniProt P04757+P12390). Nature of the test: Inhibition of rat alpha3beta2 nAChR expressed in Xenopus laevis oocytes assessed as inhibition of Ach-induced response at 10 uM at -80 mV holding potential preincubated for 5 mins followed by Ach stimulation by two electrode voltage-clamp assay relative to control. The class given is cell-based. To be noted: Oocyte.

For test [14], the target named is Voltage-dependent N-type calcium channel subunit alpha-1B (Rattus norvegicus) (UniProt Q02294). Nature of the test: Inhibition of rat CaV2.2 channel expressed in HEK293T cells assessed as reduction in CaV2.2-mediated peak-current amplitude in response to depolarizing pulse at 10 uM by whole cell patch clamp assay relative to control. The class given is cell-based.

Test [15] concerns the target Neuronal acetylcholine receptor subunit alpha-7 (Rattus norvegicus) (UniProt Q05941). In words: Inhibition of rat alpha7 nAChR expressed in Xenopus laevis oocytes assessed as inhibition of Ach-induced response at 10 uM at -80 mV holding potential preincubated for 5 mins followed by Ach stimulation by two electrode voltage-clamp assay relative to control. Type of test: cell-based. To be noted: Oocyte.

Test [16] concerns the target T1, GABA-B receptor (Homo sapiens). Nature of the test: Activation of human GABAB1/GABAB2 expressed in HEK293 cells co-transfected with rat CaV2.2 channel assessed as reduction in CaV2.2-mediated peak-current amplitude in response to depolarizing pulse at 1 nM by whole cell patch clamp assay relative to control. The class given is cell-based. To be noted: HEK293T.

pIC50: −log10 of the molar value. The source made the active and inactive calls. Peptide text beside a SMILES is read from it. * marks the point of attachment. Bz = O=C(c1ccccc1)* Bounds are passed on as bounds.

Neuronal acetylcholine receptor subunit alpha-7 (Rattus norvegicus), sequence (Q05941 whole entry): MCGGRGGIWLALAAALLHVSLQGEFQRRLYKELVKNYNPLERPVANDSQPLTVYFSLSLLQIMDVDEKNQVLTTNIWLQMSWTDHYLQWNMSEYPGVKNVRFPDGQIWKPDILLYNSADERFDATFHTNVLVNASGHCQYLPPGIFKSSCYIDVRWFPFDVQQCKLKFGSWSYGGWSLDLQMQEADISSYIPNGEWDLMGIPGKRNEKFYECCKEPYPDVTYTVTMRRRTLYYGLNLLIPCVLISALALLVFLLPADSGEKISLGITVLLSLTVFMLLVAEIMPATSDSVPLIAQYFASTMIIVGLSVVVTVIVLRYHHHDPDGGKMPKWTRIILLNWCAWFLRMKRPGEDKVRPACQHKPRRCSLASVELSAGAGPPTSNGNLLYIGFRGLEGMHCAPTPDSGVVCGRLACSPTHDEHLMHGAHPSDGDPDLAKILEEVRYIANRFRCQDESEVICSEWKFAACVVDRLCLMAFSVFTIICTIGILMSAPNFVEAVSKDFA

The inhibition is the relative decrease from the control value, in per cent. The pIC50 is the negative decadic logarithm of the IC50, by convention in mol/L. As to `CC[C@H](C)[C@H](NC(=O)[C@H](CCC(=O)O)NC(=O)[C@@H]1CCCN1C(=O)[C@H](Cc1cnc[nH]1)NC(=O)[C@H](CC(=O)O)NC(=O)[C@H](Cc1ccc(O)cc1)NC(=O)[C@H](CCCNC(=N)N)NC(=O)[C@H](CS)NC(=O)[C@H](CCCNC(=N)N)NC(=O)[C@@H]1CCCN1C(=O)[C@H](CC(=O)O)NC(=O)[C@H](CO)NC(=O)[C@H](CS)NC(=O)[C@H](CS)NC(=O)CNC(=O)c1ccccc1)C(=O)N[C@@H](CS)C(N)=O` (Bz-GCCSDPRCRYDHPEIC-NH2), the inhibition was over 50% in [1]; 67.4% in test [2]; over 50% in [3]; over 50% in [6]; over 50% in test [8]; over 50% in [13]. In addition, the inhibition in test [14] is 2.2%; in test [15] it was over 50%; in test [16] it was 39.7%. Further, the Ratio IC50 in test [4] is 4380; in test [11], over 25000. Further, in the test with Rattus norvegicus [5], the Activity is on record as 80%. The outcome in [7] was inactive. In addition, the inhibition result in the test on Neuron and in the test filed under Rattus norvegicus [9] was “inactive” each time. The pIC50 in test [10] was 5.23; at GABA-B receptor it was 9.70; in test [12], 6.06.

The record behind these values is ChEMBL document CHEMBL4680110 (2018).
